Reference: PubChem BioAssay AID248 (DTP/NCI, 2004)
Several values for one entry are separate records, joined by “and”; a condition that tells them apart may be missing. Equal values may be shown once. Inconclusive results and toxic doses are left out. No stated cut-off is given here; in the data, active means T/C of 150% or more; inactive means T/C below 125%.

Tested on: L1210 leukemia ip in BDF1 mice, survival T/C
Test: NCI In Vivo Anticancer Drug Screen. Data for tumor model L1210 Leukemia (intraperitoneal) in B6D2F1 (BDF1) mice
Conditions: endpoint: mean survival time, higher = longer survival
Method in brief: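 In this screen, tumor-bearing mice given compound are compared to those given vehicle, and their survival values are reported as a treated-to-control quotient.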

[1] = dose: 100.0 mg/kg/injection, schedule: Q01DX001 (ip), vehicle: carboxymethylcellulose (CMC)
[2] = dose: 100.0 mg/kg/injection, schedule: Q04DX003 (ip), vehicle: saline
[3] = dose: 200.0 mg/kg/injection, schedule: Q04DX003 (ip), vehicle: saline
[4] = dose: 400.0 mg/kg/injection, schedule: Q04DX003 (ip), vehicle: saline
[5] = dose: 50.0 mg/kg/injection, schedule: Q01DX009 (ip), vehicle: acetone

Measured: T/C

OCC1OC(n2cc(Br)c3c(Cl)ncnc32)C(O)C1O (centres undefined)
inactive: dose: 50.0 mg/kg/injection, schedule: Q01DX001 (ip), vehicle: carboxymethylcellulose (CMC) 117 % of control | [1] 87 % of control | dose: 200.0 mg/kg/injection, schedule: Q01DX001 (ip), vehicle: carboxymethylcellulose (CMC) 93 % of control | dose: 400.0 mg/kg/injection, schedule: Q01DX001 (ip), vehicle: carboxymethylcellulose (CMC) 112 % of control

CC(C)(CNCc1ccccc1)COS(=O)(=O)O
inactive: [2] 102 % of control | [3] 102 % of control | [4] 100 % of control

NC1(N)Sc2nc3ccccc3nc2S1
inactive: dose: 100.0 mg/kg/injection, schedule: Q04DX002 (ip), vehicle: saline with Tween-80 101 % of control

CC1OCC(C)C(C)(C)O1 (centres undefined)
inactive: [5] 100 % of control | dose: 100.0 mg/kg/injection, schedule: Q01DX009 (ip), vehicle: acetone 90 % of control | dose: 100.0 mg/kg/injection, schedule: Q04DX003 (ip), vehicle: acetone 112 % of control | dose: 200.0 mg/kg/injection, schedule: Q01DX009 (ip), vehicle: acetone 89 % of control | dose: 200.0 mg/kg/injection, schedule: Q04DX003 (ip), vehicle: acetone 108 % of control | dose: 400.0 mg/kg/injection, schedule: Q04DX003 (ip), vehicle: acetone 103 % of control

O=C1C(Cl)=C(N=Nc2c(Cl)c(O)c3ccccc3c2O)C(=O)c2ccccc21
inactive: dose: 12.5 mg/kg/injection, schedule: Q01DX009 (ip), vehicle: acetone 105 % of control | dose: 25.0 mg/kg/injection, schedule: Q01DX009 (ip), vehicle: acetone 107 % of control | [5] 104 % of control | [1] 97 % of control

CCN(CC)CCOc1cc(C)cc2ccccc12
inactive: dose: 12.5 mg/kg/injection, schedule: Q04DX003 (ip), vehicle: saline 87 % of control | dose: 25.0 mg/kg/injection, schedule: Q04DX003 (ip), vehicle: saline 98 % of control | dose: 50.0 mg/kg/injection, schedule: Q04DX003 (ip), vehicle: saline 101 % of control | [2] 104 % of control

CC(=O)/C(C)=N/Nc1ccccc1
inactive: dose: 100.0 mg/kg/injection, schedule: Q04DX003 (ip), vehicle: saline with Tween-80 101 % of control | dose: 200.0 mg/kg/injection, schedule: Q04DX003 (ip), vehicle: saline with Tween-80 106 % of control | dose: 400.0 mg/kg/injection, schedule: Q04DX003 (ip), vehicle: saline with Tween-80 106 % of control

[Cl][Sb]([c]1ccccc1)([c]1ccccc1)([c]1ccccc1)[c]1ccccc1
inactive: dose: 2.4 mg/kg/injection, schedule: Q01DX009 (ip), vehicle: saline 101 % of control | dose: 4.7 mg/kg/injection, schedule: Q01DX009 (ip), vehicle: saline 94 % of control | dose: 9.4 mg/kg/injection, schedule: Q01DX009 (ip), vehicle: saline 91 % of control

CN(C)C(=S)Oc1ccc(C(C)(C)C)cc1
inactive: dose: 100.0 mg/kg/injection, schedule: Q01DX001 (ip), vehicle: Klucel (hydroxypropylcellulose) (HPC) 96 % of control | dose: 200.0 mg/kg/injection, schedule: Q01DX001 (ip), vehicle: Klucel (hydroxypropylcellulose) (HPC) 98 % of control | dose: 400.0 mg/kg/injection, schedule: Q01DX001 (ip), vehicle: Klucel (hydroxypropylcellulose) (HPC) 90 % of control

Nc1cccnc1NCC(O)c1ccccc1 (centres undefined)
inactive: dose: 100.0 mg/kg/injection, schedule: Q01DX001 (ip), vehicle: saline 103 % of control | dose: 200.0 mg/kg/injection, schedule: Q01DX001 (ip), vehicle: saline 97 % of control

CCOC(=O)C(Cc1ccccc1)N=NNc1nc[nH]c1C(N)=O (centres undefined)
inactive: dose: 375.0 mg/kg/injection, schedule: Q01DX001 (ip), vehicle: carboxymethylcellulose (CMC) 96 % of control | dose: 500.0 mg/kg/injection, schedule: Q01DX001 (ip), vehicle: carboxymethylcellulose (CMC) 106 % of control

Cc1ccc(C2C(C(=O)N3CCN(C)CC3)C2c2ccccc2)cc1 (centres undefined)
inactive: dose: 25.0 mg/kg/injection, schedule: Q04DX002 (ip), vehicle: saline 98 % of control | dose: 50.0 mg/kg/injection, schedule: Q04DX002 (ip), vehicle: saline 98 % of control | dose: 100.0 mg/kg/injection, schedule: Q04DX002 (ip), vehicle: saline 95 % of control

Cc1cccc(SC(=O)Nc2ccccc2C(F)(F)F)c1
inactive: dose: 25.0 mg/kg/injection, schedule: Q01DX009 (ip), vehicle: Klucel (hydroxypropylcellulose) (HPC) 103 % of control | dose: 50.0 mg/kg/injection, schedule: Q01DX009 (ip), vehicle: Klucel (hydroxypropylcellulose) (HPC) 94 % of control | dose: 100.0 mg/kg/injection, schedule: Q01DX009 (ip), vehicle: Klucel (hydroxypropylcellulose) (HPC) 97 % of control and 102 % of control | dose: 100.0 mg/kg/injection, schedule: Q04DX003 (ip), vehicle: Klucel (hydroxypropylcellulose) (HPC) 98 % of control | dose: 200.0 mg/kg/injection, schedule: Q04DX003 (ip), vehicle: Klucel (hydroxypropylcellulose) (HPC) 109 % of control | dose: 400.0 mg/kg/injection, schedule: Q04DX003 (ip), vehicle: Klucel (hydroxypropylcellulose) (HPC) 93 % of control

CC1C(C)(C)P(=O)(n2nnc3ccccc32)C1(C)C (centres undefined)
inactive: [2] 105 % of control | [3] 97 % of control | [4] 94 % of control

C=C1C(=O)OC2CC(C)C(C(O)CC(C)O)=CCC12 (centres undefined)
inactive: dose: 50.0 mg/kg/injection, schedule: Q01DX001 (ip), vehicle: water 95 % of control | dose: 100.0 mg/kg/injection, schedule: Q01DX001 (ip), vehicle: water 95 % of control
